Assay results published in ChEMBL document CHEMBL6153148, “Carboxamide-Bearing Panobinostat Analogues Designed To Interact with E103-D104 at the Cavity Opening of Class I HDAC Isoforms” (ACS Med Chem Lett, 2025).
pIC50: −log10 of the molar value.

Molecular target: Histone deacetylase 2 (Homo sapiens, UniProt Q92769)
Experiment: Inhibition of human HDAC2 using RHKKAc as substrate by fluorescence based analysis

Chain of Histone deacetylase 2 (Q92769 whole entry): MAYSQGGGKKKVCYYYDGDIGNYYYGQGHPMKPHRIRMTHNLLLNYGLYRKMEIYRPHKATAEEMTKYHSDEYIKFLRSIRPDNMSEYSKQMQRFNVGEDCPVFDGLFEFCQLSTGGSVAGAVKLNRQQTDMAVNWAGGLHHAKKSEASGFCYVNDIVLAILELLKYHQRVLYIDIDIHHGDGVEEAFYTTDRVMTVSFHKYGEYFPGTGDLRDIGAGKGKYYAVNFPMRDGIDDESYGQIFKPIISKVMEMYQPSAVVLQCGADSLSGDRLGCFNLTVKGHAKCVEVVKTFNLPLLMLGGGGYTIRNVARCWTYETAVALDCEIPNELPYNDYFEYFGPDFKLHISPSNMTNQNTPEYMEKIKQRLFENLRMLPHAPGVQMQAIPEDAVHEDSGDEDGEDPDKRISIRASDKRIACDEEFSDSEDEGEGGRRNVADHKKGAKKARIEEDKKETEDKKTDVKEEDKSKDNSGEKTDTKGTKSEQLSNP

Row | Structure (SMILES) | pIC50
1 | NC(=O)[C@H]1Cc2c([nH]c3ccccc23)[C@@H](c2ccc(/C=C/C(=O)NO)cc2)N1 | 5.48
2 | Cc1[nH]c2ccccc2c1C[C@@H](NCc1ccc(/C=C/C(=O)NO)cc1)C(N)=O | 6.28
3 | NC(=O)[C@H]1Cc2c([nH]c3ccccc23)[C@H](c2ccc(/C=C/C(=O)NO)cc2)N1 | 5.48

These reach a higher pIC50. Values come first.

Row | pIC50 | Structure (SMILES)
4 | 6.38 | NC(=O)[C@@H](Cc1c[nH]c2ccccc12)NCc1ccc(/C=C/C(=O)NO)cc1
5 | 6.35 | NC(=O)[C@@H]1Cc2c([nH]c3ccccc23)[C@@H](c2ccc(/C=C/C(=O)NO)cc2)N1
6 | 6.46 | NC(=O)[C@H](Cc1c[nH]c2ccccc12)NCc1ccc(/C=C/C(=O)NO)cc1
7 | 6.35 | NC(=O)[C@@H]1Cc2c([nH]c3ccccc23)[C@H](c2ccc(/C=C/C(=O)NO)cc2)N1
8 | 6.82 | Cc1[nH]c2ccccc2c1C[C@H](NCc1ccc(/C=C/C(=O)NO)cc1)C(N)=O
